Laboratory results as given in patent US20250313569A1, “Pharmaceutical Compounds And Compositions As Modulators Of MAS-Related G-Protein Receptor X2” (Enanta Pharmaceuticals, Inc., priority 2024, published 2025).

Assays:
human MRGPRX2 = target: T1, human MRGPRX2 (Homo sapiens, UniProt Q96LB1); experiment: MRGPRX2 IP-1 Gq HTRF assay in HEK293 cells stably expressing human MRGPRX2, Cortistatin-14 at EC75; type: cell-based; conditions: 2 hours at 37° C., cellular IP-1
T1 construct: expressed in transfected cells; host or cells: HEK293
T1 sequence (Q96LB1 1-330): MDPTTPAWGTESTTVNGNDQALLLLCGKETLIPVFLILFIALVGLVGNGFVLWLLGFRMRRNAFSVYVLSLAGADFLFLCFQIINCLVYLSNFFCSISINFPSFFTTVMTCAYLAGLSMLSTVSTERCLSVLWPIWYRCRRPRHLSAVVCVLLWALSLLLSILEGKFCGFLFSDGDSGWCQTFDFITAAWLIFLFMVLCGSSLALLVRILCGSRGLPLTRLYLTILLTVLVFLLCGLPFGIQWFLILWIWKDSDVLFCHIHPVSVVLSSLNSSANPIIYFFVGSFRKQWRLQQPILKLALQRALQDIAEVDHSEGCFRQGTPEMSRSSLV
Protocol: HEK293 cells stably expressing human MRGPRX2 were grown in Dulbecco's Modified Eagle Medium (DMEM) supplemented with 10% fetal bovine serum (FBS), 1% Glutamax, and 1 μg/mL of puromycin. Cells were maintained in a 37° C., 5% CO2 humidified incubator.
Cells were plated in a 384-well assay plate at a density of 20,000 cells per well overnight. Compounds were solubilized at 10 mM in DMSO and added as a 10-point curve using an ECHO acoustic liquid handler. On the day of the assay, Cortistatin-14 was diluted in assay buffer (provided by IP-One-Gq-HTRF kit purchased from Cisbio, 62IPAPEJ) and added to the assay plate at a final concentration corresponding to the predetermined EC75. Plates were incubated at 37° C. for 2 hours prior to addition of HTRF detection reagents per the manufacturer's instructions. The plates were read on a Perkin Elmer Envision plate reader. The HTRF ratio and cellular IP-1 levels were calculated. XLfit was used to calculate an EC50 value for each compound using a 4-parameter logistic curve fitting model. EC50 ranges are reported as follows: A<100 nM; B 0.1-1 μM; C>1 μM.

MRGPRX2 LAD2 = target: T2, MRGPRX2 LAD2 (Homo sapiens, UniProt Q96LB1); experiment: LAD2 β-hexosaminidase release assay (degranulation), Cortistatin-14 at EC75; type: cell-based; conditions: LAD2 cells; 1 hour compound incubation, Cortistatin-14 at EC75 for 30 minutes; percent degranulation (β-hexosaminidase)
T2 construct: host or cells: LAD2 human mast cells
T2 sequence (Q96LB1 1-330): T1 sequence (Q96LB1 1-330)
Protocol: LAD2 cells obtained from the NIH were cultured in StemPro34 (Gibco) serum-free media supplemented with GlutaMax, penicillin and streptomycin, and 100 ng/mL SCF (Invitrogen). Cells were maintained in a 37° C., 5% CO2 humidified incubator at a concentration of 2-5E5 cells/mL, with hemidepletion once a week.
One day prior to the assay, cells were starved of SCF at a concentration of 2.3E5 cells/mL. On the day of the assay cells were washed twice in Tyrode's Buffer containing 0.04% BSA (assay buffer) and plated in a 96 well-v-bottom assay plate at 20,000 cells per well in 80 μL of assay buffer. Compounds were solubilized at 10 mM DMSO and added as a 10-fold overconcentrated 8-point curve in assay buffer in a volume of 10 μL using the JANUS liquid handler. Assay plates were incubated for 1 hour at 37° C. Cortistatin-14 was diluted in assay buffer to […] its predetermined EC75 and added to the assay plates in a volume of 10 μL. Assay plates were incubated at 37° C. for 30 minutes. After incubation, cells were pelleted and 50 μL of supernatant from each well was transferred to a 96 well flat bottom plate containing 100 μL of substrate solution (3.5 mg/mL p-Nitrophenyl-N-acetyl-β-D-glucosaminide (Sigma Aldrich) in 40 mM Citrate Buffer (Thermo Fisher)). The remaining cell pellets were lysed with 150 μL of 0.1% Triton-X-100 and mixed thoroughly. 50 μL of lysate was transferred to a 96-well flat bottom plate containing 100 μL of substrate solution. Plates with supernatants and lysates were incubated at 37° C. for 90 minutes prior to addition of 50 μL of 400 mM Glycine buffer (pH 10.7). The plates were read on a Perkin Elmer Envision plate reader at an Abs of 405 nanometers. Percent degranulation was calculated and Xlfit was used to calculate an EC50 value for each compound using a 4-parameter logistic curve fitting model. EC50 ranges are reported as follows: A<100 nM; B 0.1-1 μM; C>1 μM.

Row | SMILES | EC50 (human MRGPRX2) [nM] | EC50 (MRGPRX2 LAD2) [nM]
1 | CC(=O)N1C[C@@H](NC(=O)c2cnn(CC(C)(C)O)c2)C[C@@H](Nc2cc(C(F)(F)F)nc3ccc(Cl)cc23)C1 [Example 64] | < 100 | 
2 | CC(=O)N1C[C@@H](NC(=O)c2ccc(C(F)(F)F)nc2)C[C@@H](Nc2cc(C(F)(F)F)nc3ccc(Cl)cc23)C1 [Example 63] | 100 to 1000 | 
3 | CC(=O)N1C[C@@H](NC(=O)c2cn(CC(C)(C)O)nc2Cl)C[C@@H](Nc2cc(C(F)(F)F)nc3ccc(Cl)cc23)C1 [Example 65] | < 100 | 
4 | CC(=O)N1CC(Nc2cc(C(F)(F)F)nc3ccccc23)C[C@H](NC(=O)c2cccc(NS(C)(=O)=O)c2)C1 (some centres unmarked) [Example 22] | 100 to 1000 | 
5 | CCn1cc2cc(C(=O)N[C@H]3C[C@@H](Nc4cc(C(F)(F)F)nc5ccc(Cl)cc45)CN(C(C)=O)C3)ccc2n1 [Example 57] | < 100 | 
6 | CC(=O)N1C[C@@H](NC(=O)c2ccc3[nH]ncc3c2)C[C@@H](Nc2cc(C(F)(F)F)nc3ccc(Cl)cc23)C1 [Example 58] | < 100 | 
7 | COCC(F)(F)C(=O)N1C[C@@H](NC(=O)c2cn(CC(F)(F)F)nc2C2CC2)C[C@@H](Nc2cc(C(F)(F)F)nc3ccc(Cl)cc23)C1 [Example 87] |  | < 100
8 | O=C(N[C@H]1C[C@@H](Nc2cc(C(F)(F)F)nc3ccc(Cl)cc23)CN(C2COC2)C1)c1cn(CC(F)(F)F)nc1C1CC1 [Example 91] |  | 100 to 1000
9 | CC(C)(O)Cn1cc(C(=O)N[C@H]2C[C@@H](Nc3cc(C(F)(F)F)nc4ccc(Cl)cc34)CN(C(=O)[C@H](NC(=O)C(F)(F)F)c3ccccc3)C2)c(Cl)n1 [Example 86] |  | < 100
10 | CC(=O)N1C[C@@H](NC(=O)c2cn(CC(C)(C)O)c3ncccc23)C[C@@H](Nc2cc(C(F)(F)F)nc3ccc(Cl)cc23)C1 [Example 98] |  | < 100
11 | CC(=O)N1C[C@@H](NC(=O)c2c[nH]c3ncccc23)C[C@@H](Nc2cc(C(F)(F)F)nc3ccc(Cl)cc23)C1 [Example 94] |  | < 100
12 | CC(C)(O)Cn1cc(C(=O)N[C@H]2C[C@@H](Nc3cc(C(F)(F)F)nc4ccc(Cl)cc34)CN(C(=O)[C@H]3CC3(F)F)C2)c(Cl)n1 [Example 78] |  | < 100
13 | CS(=O)(=O)Nc1cccc(C(=O)N[C@H]2C[C@@H](Nc3cc(C(F)(F)F)nc4ccc(Cl)cc34)CN(C(=O)C(F)F)C2)c1 [Example 72] |  | < 100
14 | Cn1nnc(N2C[C@@H](NC(=O)c3cn(CC(F)(F)F)nc3C3CC3)C[C@@H](Nc3cc(C(F)(F)F)nc4ccc(Cl)cc34)C2)n1 [Example 93] |  | < 100
15 | CC(C)(O)Cn1cc(C(=O)N[C@H]2C[C@@H](Nc3cc(C(F)(F)F)nc4ccc(Cl)cc34)CN(C(=O)C(F)(F)c3ccc(C#N)cc3)C2)c(Cl)n1 [Example 88] |  | < 100
16 | CC(C)(O)Cn1cc(C(=O)N[C@H]2C[C@@H](Nc3cc(C(F)(F)F)nc4ccc(Cl)cc34)CN(C(=O)C3(F)CC3)C2)c(Cl)n1 [Example 81] |  | < 100
17 | O=C(N[C@H]1C[C@@H](Nc2cc(C(F)(F)F)nc3ccc(Cl)cc23)CN(C(=O)[C@H]2CC2(F)F)C1)c1cn(CC(F)(F)F)nc1C1CC1 [Example 74] |  | < 100
18 | CC(C)(O)Cn1cc(C(=O)N[C@H]2C[C@@H](Nc3cc(C(F)(F)F)nc4ccc(Cl)cc34)CN(C(=O)c3ccccc3F)C2)c(Cl)n1 [Example 85] |  | < 100
19 | O=C(N[C@H]1C[C@@H](Nc2cc(C(F)(F)F)nc3ccc(Cl)cc23)CN(C(=O)C(F)(F)F)C1)c1cn(CC(F)(F)F)nc1C1CC1 [Example 89] |  | < 100
20 | O=C(N[C@H]1C[C@@H](Nc2cc(C(F)(F)F)nc3ccc(Cl)cc23)CN(C(=O)[C@@H]2CC2(F)F)C1)c1cn(CC(F)(F)F)nc1C1CC1 [Example 75] |  | < 100

The next lines start with the values.

Row | EC50 (human MRGPRX2) [nM] | EC50 (MRGPRX2 LAD2) [nM] | SMILES
21 |  | < 100 | O=C(N[C@H]1C[C@@H](Nc2cc(C(F)(F)F)nc3ccc(Cl)cc23)CN(C(=O)C(F)F)C1)N1CC[C@H](O)C1 [Example 127]
22 |  | < 100 | CC(=O)N1C[C@@H](NC(=O)c2cn(CC(F)(F)F)cc2C(F)(F)F)C[C@@H](Nc2cc(C(F)(F)F)nc3ccc(Cl)cc23)C1 [Example 113]
23 |  | < 100 | CC(=O)N1C[C@@H](NC(=O)c2cn(CC(C)(C)O)nc2C)C[C@@H](Nc2cc(C(F)(F)F)nc3ccc(Cl)cc23)C1 [Example 104]
24 |  | < 100 | C[C@H](O)Cn1cc(C(=O)N[C@H]2C[C@@H](Nc3cc(C(F)(F)F)nc4ccc(Cl)cc34)CN(C(=O)C(F)F)C2)c(Cl)n1 [Example 124]
25 |  | < 100 | C[C@@H](O)Cn1cc(C(=O)N[C@H]2C[C@@H](Nc3cc(C(F)(F)F)nc4ccc(Cl)cc34)CN(C(=O)C(F)F)C2)c(Cl)n1 [Example 123]
26 |  | < 100 | CC(=O)N1C[C@@H](NC(=O)c2cn(CC(F)(F)F)nc2C2CCC2)C[C@@H](Nc2cc(C(F)(F)F)nc3ccc(Cl)cc23)C1 [Example 100]
27 |  | < 100 | O=C(N[C@H]1C[C@@H](Nc2cc(C(F)(F)F)nc3ccc(Cl)cc23)CN(C(=O)C(F)F)C1)N1CCCC2(CC2)C1 [Example 128]
28 |  | < 100 | CC(=O)N1C[C@@H](NC(=O)c2cn(C3CCS(=O)(=O)CC3)nc2C(F)(F)F)C[C@@H](Nc2cc(C(F)(F)F)nc3ccc(Cl)cc23)C1 [Example 106]
29 |  | < 100 | CC(=O)N1C[C@@H](NC(=O)c2cn(C3CC(F)(F)C3)nc2C(F)F)C[C@@H](Nc2cc(C(F)(F)F)nc3ccc(Cl)cc23)C1 [Example 108]
30 |  | < 100 | Cc1nn(CC(C)(C)O)cc1C(=O)N[C@H]1C[C@@H](Nc2cc(C(F)(F)F)nc3ccc(Cl)cc23)CN(C(=O)C(F)F)C1 [Example 117]
31 |  | < 100 | CC(=O)N1C[C@@H](NC(=O)c2cn(CC(F)(F)F)nc2C2CC2)C[C@@H](Nc2c(F)c(C(F)(F)F)nc3cc(F)c(Cl)cc23)C1 [Example 130]
32 |  | < 100 | CC(=O)N1C[C@@H](NC(=O)c2cn(CC(F)F)nc2C(F)(F)F)C[C@@H](Nc2cc(C(F)(F)F)nc3ccc(Cl)cc23)C1 [Example 99]
33 |  | < 100 | CC(C)(O)Cn1cc(C(=O)N[C@H]2C[C@@H](Nc3cc(C(F)(F)F)nc4ccc(Cl)cc34)CN(C(=O)C(F)F)C2)c(Cl)n1 [Example 118]
34 |  | < 100 | O=C(N[C@H]1C[C@@H](Nc2cc(C(F)(F)F)nc3ccc(Cl)cc23)CN(C(=O)C(F)F)C1)c1cn(C[C@H](O)C(F)F)nc1Cl [Example 120]
35 |  | < 100 | COCc1nn(CC(F)(F)F)cc1C(=O)N[C@H]1C[C@@H](Nc2cc(C(F)(F)F)nc3ccc(Cl)cc23)CN(C(C)=O)C1 [Example 102]
36 |  | < 100 | CC(=O)N1C[C@@H](NC(=O)c2cn(CC(F)(F)F)nc2C2CC2)C[C@@H](Nc2cc(C(F)(F)F)nc3cc(F)c(Cl)cc23)C1 [Example 133]
37 |  | < 100 | CC(=O)N1C[C@@H](NC(=O)c2cn(CC(F)(F)F)nc2C2CC2)C[C@@H](Nc2c(C)c(C(F)(F)F)nc3ccc(Cl)cc23)C1 [Example 135]
38 |  | < 100 | CC(=O)N1C[C@@H](NC(=O)c2ccc3[nH]ccc3c2)C[C@@H](Nc2cc(C(F)(F)F)nc3ccc(Cl)cc23)C1 [Example 111]
39 |  | < 100 | O=C(C(F)F)N1C[C@@H](Nc2nccc3ccccc23)C[C@@H](Nc2cc(C(F)(F)F)nc3ccc(Cl)cc23)C1 [Example 125]
40 |  | < 100 | CC(=O)N1C[C@@H](NC(=O)c2cn(CC(F)(F)F)nc2C2CC2)C[C@@H](Nc2c(F)c(C(F)(F)F)nc3ccc(Cl)cc23)C1 [Example 136]
41 |  | < 100 | O=C(N[C@H]1C[C@@H](Nc2cc(C(F)(F)F)nc3ccc(Cl)cc23)CN(C(=O)C(F)F)C1)c1cn(C[C@@H](O)C(F)(F)F)nc1Cl [Example 116]
